The text below walks through data of paper PMC9612005 (Pharmaceutics, 2022).

The assay has as its system cone photoreceptors. The assay can be described thus: µERG a-wave of mouse retinal explants on MEA, photopic (light-adapted) stimulation. In kind it is cell-based. As to conditions: for decrease in the a-wave slope vs control / a-wave amplitude / a-wave slope: photopic; for decrease in the a-wave slope vs control: averaged; for decrease in the a-wave slope vs control / cone a-wave responses under photopic stimulation: inhibitor 50 µM, activator 0.1 µM; for a-wave amplitude / a-wave slope: inh 50 µM, act 0.1 µM, mean ±std; for cone a-wave responses under photopic stimulation: ≥+0.5 log. Here is the method:
Further animal experiments were performed using adult postnatal-day (P) 25–30 C57BL/6J mice (n = 12). Animals were housed under standard 12 h white cyclic lighting, had free access to food, water, and playgrounds, and were used irrespective of gender. Animal protocols compliant with §4 of the German law on animal protection were reviewed and approved by the Tübingen University committee on animal protection, and registered on 30 March 2022 under the No. AK05/22M. Moreover, experiments were performed in accordance with the ARVO statement for the use of animals in ophthalmic and visual research. All efforts were made to minimize the number of mice used and their suffering.
The mice were kept overnight in a ventilated light-tight box for dark-adaption. Subsequent procedures were performed under dim red light. The eyes of the mice were enucleated; then, the retina was isolated in extracellular solution containing (in mM): 125 NaCl, 26 NaHCO3, 2.5 KCl, 2 CaCl2, 1 MgCl2, 1.25 NaH2PO4, and 20 glucose, and was maintained at pH 7.4 using carboxygen perfusion (95/5% O2/CO2). All chemicals were obtained from Merck KGaA (Darmstadt, Germany). For MEA recording, the retinas were placed in the MEA-recording chamber (GC-side down). During the recordings, the tissue was perfused with carboxygenated medium at 32 °C. The chamber perfusion rate was adjusted to 2 mL/min.
Electrophysiological recordings were performed to assess the light dependent retinal responses (photoreceptors µERG and RGCs spikes) by means of a multi-electrode array system (MEA, USB-MEA60-Up-BC-System-E from Multi Channel Systems, Reutlingen, Germany) equipped with MEA 200/30iR-ITO-pr. The recordings were performed at a 25,000 Hz sampling-rate collecting unfiltered raw data. The trigger-synchronized operation of the light stimulation (LEDD1B T-Cube, Thorlabs) and MEA recording were controlled by the recording protocol set within the MCRack software (v 4.6.2, Multi Channel Systems, Reutlingen, Germany) and the digital I/O box (MCS). The light stimulation (white light LED, 2350 mW, MCWHD3, Thorlabs, Newton, NJ, USA) was applied from beneath the transparent glass MEA, guided by optic fiber and optics. A spectrometer USB4000-UV-VIS-ES (Ocean Optics, Orlando, FL, USA) was employed to calibrate the intensity of the applied light-stimulation protocol. To discriminate the rod and cone photoreceptor responses, a light-stimulation protocol for ex vivo MEA recordings was established following the standard in-vivo ERG protocol. For scotopic recordings (rod responses), the animals were dark-adapted (12 h), while for the photopic recordings (cone responses), the retinal explants were light-adapted on the MEA (5 min at intensity of 4.20 × 10^13 photons/cm^2/s), subsequent to scotopic stimulation. The parameters of the light stimuli were set as: light flash 250 ms long (3 repetition per light intensity, 20 s interval). Scotopic: 10 stimuli in 0.5 log steps from −4.5 to 0.0 (1.33 × 10^9–4.20 × 10^13 photons/cm^2/s). Photopic (background light: 4.20 × 10^13 photons/cm^2/s): four stimuli in 0.5 log steps from +0.5 to +2.0 (1.33 × 10^14–4.20 × 10^15 photons/cm^2/s).
MEA-recorded raw data files were filtered employing a Butterworth 2nd order filter (MC-Rack, Multi-channel systems) to extract the µERG (field potentials: bandpass 0.01–100 Hz) and spikes (high pass 200 Hz). The filtered data were converted to *.hdf files by MC DataManager (v1.6.1.0, Multi Channel Systems, Reutlingen, Germany) for further data processing in MATLAB [39]. Shown traces data are the average of 30 MEA recording electrodes, per condition. n = 5 retinae were recorded per condition. Statistical significance was estimated by one-way ANOVA followed by the Dunnett´s test for multiple comparisons. […]

Turning to `Nc1nc2c(nc(Sc3ccc(Cl)cc3)n2[C@@H]2O[C@@H]3COP(=O)(O)O[C@H]3[C@H]2O)c(=O)[nH]1` [8-pCPT-cGMP], the “decrease in the a-wave slope vs control” value is on record as ~ 60% and the “cone a-wave responses under photopic stimulation” value is given as “no effect on cones”. Under “light intensity +0.5 log”, this molecule gave an a-wave amplitude of -3.04± 1.68 µV and an a-wave slope of -0.04± 0.06 µV / 20 ms. Under “light intensity +1.0 log”, this molecule returned an a-wave amplitude of -7.72± 1.37 µV and an a-wave slope of 0.07± 0.22 µV / 20 ms. Further, under “light intensity +1.5 log”, the a-wave amplitude is given as -10.79± 1.41 µV and the a-wave slope is recorded as -0.18± 0.09 µV / 20 ms. Where the note is “light intensity +2.0 log”, this molecule returned an a-wave amplitude of -12.55± 1.72 µV and an a-wave slope of -0.23± 0.11 µV / 20 ms.

For the molecule `O=c1c2nc(Br)n([C@@H]3O[C@@H]4CO[P@@](=O)(S)O[C@H]4[C@H]3O)c2nc2[nH]c(-c3ccccc3)cn12` [Rp-8-Br-PET-cGMPS], the “decrease in the a-wave slope vs control” value is reported as about 90% and the “cone a-wave responses under photopic stimulation” value was “the cone a-wave amplitudes showed only minimal increases”. Also, under “light intensity +0.5 log”, the a-wave amplitude was -1.53± 0.76 µV and the a-wave slope is listed as 0.03± 0.02 µV / 20 ms. Further, under “light intensity +1.0 log”, the a-wave amplitude is listed as -1.98± 0.87 µV and the a-wave slope was -0.04± 0.02 µV / 20 ms. For the setting “light intensity +1.5 log”, this molecule came in with an a-wave amplitude of -1.96± 0.89 µV and an a-wave slope of -0.05± 0.05 µV / 20 ms. In addition, for the setting “light intensity +2.0 log”, the a-wave amplitude was -2.27± 0.97 µV and the a-wave slope is -0.01± 0.01 µV / 20 ms.
